Data on ten cell lines can be found in the supplement of paper PMC10307832.

What all share (assay): relative viability (nuclei count vs DMSO), 5 days (fraction); higher = more cells survive
Compound in the test “AZD8055 + Olaparib”: COc1ccc(-c2ccc3c(N4CCOC[C@@H]4C)nc(N4CCOC[C@@H]4C)nc3n2)cc1CO [AZD8055] + O=C(c1cc(Cc2n[nH]c(=O)c3ccccc23)ccc1F)N1CCN(C(=O)C2CC2)CC1 [Olaparib] (partner 8 µM)
Put shortly: (§1)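 Nuclei were stained with Hoechst during a one-step fixation (final 0.05% Triton X-100, 1% formaldehyde, 1 ug/ml Hoechst) carried out 5 days after dosing, then counted on 4× images. The cells, lung cancer lines in 1536-well plates, had been dosed by pin tool the day after seeding with one drug alone or a fixed anchor-drug dose plus five library-drug doses (not always all listed) in √10 steps. Relative viability is the nuclei count in treated wells divided by that in vehicle wells, and each value is the median of duplicate plates.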

Compound in the test “AZD8055 + Alpelisib”: COc1ccc(-c2ccc3c(N4CCOC[C@@H]4C)nc(N4CCOC[C@@H]4C)nc3n2)cc1CO [AZD8055] + Cc1nc(NC(=O)N2CCC[C@H]2C(N)=O)sc1-c1ccnc(C(C)(C)C(F)(F)F)c1 [Alpelisib] (partner 2 µM)
Put shortly:
as §1

Compound in the test “AZD8055 + Bortezomib”: COc1ccc(-c2ccc3c(N4CCOC[C@@H]4C)nc(N4CCOC[C@@H]4C)nc3n2)cc1CO [AZD8055] + CC(C)C[C@H](NC(=O)[C@H](Cc1ccccc1)NC(=O)c1cnccn1)B(O)O [Bortezomib] (partner 0.002 µM)
Put shortly:
as §1

Compound in the test “AZD8055 + Pemetrexed”: COc1ccc(-c2ccc3c(N4CCOC[C@@H]4C)nc(N4CCOC[C@@H]4C)nc3n2)cc1CO [AZD8055] + Nc1nc2[nH]cc(CCc3ccc(C(=O)N[C@@H](CCC(=O)O)C(=O)O)cc3)c2c(=O)[nH]1 [Pemetrexed] (partner 0.2 µM)
In outline: as §1

Take A549: the relative viability with AZD8055 + Olaparib (first compound 0.01 µM) stood at 0.279; with AZD8055 + Olaparib (first compound 0.03162 µM) it was 0.359; with AZD8055 + Olaparib (first compound 0.1 µM), 0.21; with AZD8055 + Olaparib (first compound 0.3162 µM), 0.142; in the test with AZD8055 + Olaparib (first compound 1 µM), 0.0857; in the test with AZD8055 + Alpelisib (first compound 0.01 µM), 0.524. Further, the relative viability with AZD8055 + Alpelisib (first compound 0.03162 µM) is 0.373; with AZD8055 + Alpelisib (first compound 0.1 µM), 0.223; in the test with AZD8055 + Alpelisib (first compound 0.3162 µM) it was 0.0986; with AZD8055 + Alpelisib (first compound 1 µM), 0.109.

Regarding ABC-1, the relative viability turned out to be 0.3 in the test with AZD8055 + Bortezomib (first compound 0.01 µM); 0.287 with AZD8055 + Bortezomib (first compound 0.03162 µM); 0.366 with AZD8055 + Bortezomib (first compound 0.1 µM); 0.284 in the test with AZD8055 + Bortezomib (first compound 0.3162 µM); 0.329 with AZD8055 + Bortezomib (first compound 1 µM); 1.3 in the test with AZD8055 + Olaparib (first compound 0.01 µM). The relative viability amounted to 1.37 in the test with AZD8055 + Olaparib (first compound 0.03162 µM); 0.992 with AZD8055 + Olaparib (first compound 0.1 µM); 0.717 with AZD8055 + Olaparib (first compound 0.3162 µM); 0.907 with AZD8055 + Olaparib (first compound 1 µM); 0.897 in the test with AZD8055 + Alpelisib (first compound 0.01 µM); 0.847 with AZD8055 + Alpelisib (first compound 0.03162 µM). The relative viability in the test with AZD8055 + Alpelisib (first compound 0.1 µM) stood at 0.65; in the test with AZD8055 + Alpelisib (first compound 0.3162 µM), 0.404; in the test with AZD8055 + Alpelisib (first compound 1 µM) it was 0.515.

As to Calu-6, the relative viability came to 1.04 in the test with AZD8055 + Bortezomib (first compound 0.01 µM); 0.917 with AZD8055 + Bortezomib (first compound 0.03162 µM); 0.824 with AZD8055 + Bortezomib (first compound 0.1 µM); 0.489 in the test with AZD8055 + Bortezomib (first compound 0.3162 µM); 0.457 with AZD8055 + Bortezomib (first compound 1 µM); 0.716 with AZD8055 + Olaparib (first compound 0.01 µM). The relative viability in the test with AZD8055 + Olaparib (first compound 0.03162 µM) turned out to be 0.616; in the test with AZD8055 + Olaparib (first compound 0.1 µM) it was 0.505; in the test with AZD8055 + Olaparib (first compound 0.3162 µM), 0.478; with AZD8055 + Olaparib (first compound 1 µM), 0.362; with AZD8055 + Alpelisib (first compound 0.01 µM), 0.911; with AZD8055 + Alpelisib (first compound 0.03162 µM), 0.69. In addition, the relative viability in the test with AZD8055 + Alpelisib (first compound 0.1 µM) came to 0.524; with AZD8055 + Alpelisib (first compound 0.3162 µM), 0.399; with AZD8055 + Alpelisib (first compound 1 µM), 0.339.

With ChaGo-K-1, the relative viability in the test with AZD8055 + Bortezomib (first compound 0.01 µM) was determined as 1.03; with AZD8055 + Bortezomib (first compound 0.03162 µM) it was 1.12; with AZD8055 + Bortezomib (first compound 0.1 µM), 1.09; in the test with AZD8055 + Bortezomib (first compound 0.3162 µM) it was 0.87; with AZD8055 + Bortezomib (first compound 1 µM), 0.647; with AZD8055 + Olaparib (first compound 0.01 µM), 0.457. In addition, the relative viability with AZD8055 + Olaparib (first compound 0.03162 µM) is 0.48; with AZD8055 + Olaparib (first compound 0.1 µM), 0.456; with AZD8055 + Olaparib (first compound 0.3162 µM) it was 0.437; with AZD8055 + Olaparib (first compound 1 µM), 0.395; with AZD8055 + Pemetrexed (first compound 0.01 µM), 0.26; with AZD8055 + Pemetrexed (first compound 0.03162 µM), 0.262. Moreover, the relative viability came out at 0.256 in the test with AZD8055 + Pemetrexed (first compound 0.1 µM), 0.251 with AZD8055 + Pemetrexed (first compound 0.3162 µM) and 0.271 with AZD8055 + Pemetrexed (first compound 1 µM).

As to EBC-1, the relative viability with AZD8055 + Bortezomib (first compound 0.01 µM) is 0.485; in the test with AZD8055 + Bortezomib (first compound 0.03162 µM) it was 0.502; with AZD8055 + Bortezomib (first compound 0.1 µM) it was 0.301; with AZD8055 + Bortezomib (first compound 0.3162 µM), 0.236; in the test with AZD8055 + Bortezomib (first compound 1 µM) it was 0.224; in the test with AZD8055 + Olaparib (first compound 0.01 µM) it was 0.764. Besides, the relative viability with AZD8055 + Olaparib (first compound 0.03162 µM) worked out at 0.51; with AZD8055 + Olaparib (first compound 0.1 µM), 0.331; in the test with AZD8055 + Olaparib (first compound 0.3162 µM) it was 0.227; with AZD8055 + Olaparib (first compound 1 µM), 0.172; with AZD8055 + Alpelisib (first compound 0.01 µM) it was 0.827; with AZD8055 + Alpelisib (first compound 0.03162 µM), 0.421. The relative viability with AZD8055 + Alpelisib (first compound 0.1 µM) was 0.373; with AZD8055 + Alpelisib (first compound 0.3162 µM) it was 0.265; with AZD8055 + Alpelisib (first compound 1 µM), 0.259.

For IA-LM, the relative viability in the test with AZD8055 + Bortezomib (first compound 0.01 µM) stood at 0.706; in the test with AZD8055 + Bortezomib (first compound 0.03162 µM) it was 0.363; with AZD8055 + Bortezomib (first compound 0.1 µM), 0.114; with AZD8055 + Bortezomib (first compound 0.3162 µM) it was 0.106; with AZD8055 + Bortezomib (first compound 1 µM), 0.0977; with AZD8055 + Olaparib (first compound 0.01 µM), 0.8. The relative viability with AZD8055 + Olaparib (first compound 0.03162 µM) came to 0.823; with AZD8055 + Olaparib (first compound 0.1 µM), 0.551; with AZD8055 + Olaparib (first compound 0.3162 µM), 0.302; with AZD8055 + Olaparib (first compound 1 µM) it was 0.114; with AZD8055 + Alpelisib (first compound 0.01 µM), 0.749; in the test with AZD8055 + Alpelisib (first compound 0.03162 µM) it was 0.485. The relative viability with AZD8055 + Alpelisib (first compound 0.1 µM) is 0.212; in the test with AZD8055 + Alpelisib (first compound 0.3162 µM), 0.0977; in the test with AZD8055 + Alpelisib (first compound 1 µM), 0.0895.

On to LK-2, for which the relative viability in the test with AZD8055 + Olaparib (first compound 0.01 µM) was 0.769; with AZD8055 + Olaparib (first compound 0.03162 µM) it was 0.436; in the test with AZD8055 + Olaparib (first compound 0.1 µM), 0.379; with AZD8055 + Olaparib (first compound 0.3162 µM) it was 0.144; with AZD8055 + Olaparib (first compound 1 µM), 0.171; with AZD8055 + Alpelisib (first compound 0.01 µM) it was 1.03. The relative viability in the test with AZD8055 + Alpelisib (first compound 0.03162 µM) was 0.658; with AZD8055 + Alpelisib (first compound 0.1 µM) it was 0.447; with AZD8055 + Alpelisib (first compound 0.3162 µM), 0.331; in the test with AZD8055 + Alpelisib (first compound 1 µM), 0.265; in the test with AZD8055 + Pemetrexed (first compound 0.01 µM), 0.234; with AZD8055 + Pemetrexed (first compound 0.03162 µM), 0.185. Further, the relative viability is 0.138 with AZD8055 + Pemetrexed (first compound 0.1 µM), 0.137 with AZD8055 + Pemetrexed (first compound 0.3162 µM) and 0.11 with AZD8055 + Pemetrexed (first compound 1 µM).

On to NCI-H358, for which the relative viability in the test with AZD8055 + Olaparib (first compound 0.01 µM) was determined as 0.563; with AZD8055 + Olaparib (first compound 0.03162 µM), 0.594; in the test with AZD8055 + Olaparib (first compound 0.1 µM), 0.543; in the test with AZD8055 + Olaparib (first compound 0.3162 µM) it was 0.202; with AZD8055 + Olaparib (first compound 1 µM), 0.12; with AZD8055 + Alpelisib (first compound 0.01 µM) it was 0.714. For the same cell line, the relative viability was 0.786 with AZD8055 + Alpelisib (first compound 0.03162 µM); 0.75 with AZD8055 + Alpelisib (first compound 0.1 µM); 0.295 with AZD8055 + Alpelisib (first compound 0.3162 µM); 0.216 with AZD8055 + Alpelisib (first compound 1 µM); 0.184 with AZD8055 + Pemetrexed (first compound 0.01 µM); 0.176 with AZD8055 + Pemetrexed (first compound 0.03162 µM). The relative viability with AZD8055 + Pemetrexed (first compound 0.1 µM) was determined as 0.158; with AZD8055 + Pemetrexed (first compound 0.3162 µM) it was 0.145; with AZD8055 + Pemetrexed (first compound 1 µM), 0.129.

Take NCI-H522: the relative viability in the test with AZD8055 + Olaparib (first compound 0.01 µM) came out at 0.603; with AZD8055 + Olaparib (first compound 0.03162 µM) it was 0.686; in the test with AZD8055 + Olaparib (first compound 0.1 µM), 0.543; with AZD8055 + Olaparib (first compound 0.3162 µM), 0.387; with AZD8055 + Olaparib (first compound 1 µM), 0.385; with AZD8055 + Pemetrexed (first compound 0.01 µM), 0.992. Also, the relative viability was found to be 0.943 with AZD8055 + Pemetrexed (first compound 0.03162 µM), 0.962 with AZD8055 + Pemetrexed (first compound 0.1 µM), 0.518 in the test with AZD8055 + Pemetrexed (first compound 0.3162 µM) and 0.467 with AZD8055 + Pemetrexed (first compound 1 µM).

Regarding NCI-H727, the relative viability in the test with AZD8055 + Bortezomib (first compound 0.01 µM) turned out to be 0.976; with AZD8055 + Bortezomib (first compound 0.03162 µM), 0.824; with AZD8055 + Bortezomib (first compound 0.1 µM) it was 0.698; with AZD8055 + Bortezomib (first compound 0.3162 µM), 0.388; in the test with AZD8055 + Bortezomib (first compound 1 µM) it was 0.275; with AZD8055 + Olaparib (first compound 0.01 µM), 0.818. Also, the relative viability with AZD8055 + Olaparib (first compound 0.03162 µM) was 0.812; with AZD8055 + Olaparib (first compound 0.1 µM), 0.744; with AZD8055 + Olaparib (first compound 0.3162 µM), 0.603; with AZD8055 + Olaparib (first compound 1 µM), 0.52; with AZD8055 + Alpelisib (first compound 0.01 µM), 0.564; with AZD8055 + Alpelisib (first compound 0.03162 µM), 0.435. For the same cell line, the relative viability came to 0.356 with AZD8055 + Alpelisib (first compound 0.1 µM), 0.255 in the test with AZD8055 + Alpelisib (first compound 0.3162 µM) and 0.269 in the test with AZD8055 + Alpelisib (first compound 1 µM).
